# Entries after “also recorded” stand apart in the source; their conditions may differ.
# How the values were obtained:
# diabetic db/db mice = assay: Erectile responses in type 2 diabetic db/db mice; assay type: in vivo, mouse; settings: intravenous infusion 1 mg/kg, n=7, versus vehicle
# Protocol: FIG. 1. Original traces show increased intracavernosal pressure induced by the cavernous nerve's electrical field stimulation (EFS). […] E-G) Frequency, duration, and magnitude of spontaneous erections after intravenous infusion of vehicle, IP2015 0.1 mg/kg, 1 mg/kg, or 10 mg/kg. The effect on EFS is reported in the supplementary data file. (H-J) Intravenous infusion of vehicle and IP2015 (1 mg/kg) in diabetic db/db mice. IP2015 increased H) frequency, I) duration and J) the magnitude of spontaneous erectile responses in db/db mice (n=7). The results are means±s.e.mean. *P<0.05 versus vehicle control.
# To investigate the effects of IP2015 in a simple model of erectile dysfunction, before dissecting its underlying pharmacology in vivo, we assessed its effects in a type-2 diabetic mouse model. Type 2 diabetic db/db mice have decreased erectile function compared to normal C57BL/6 mice and heterozygous db/+ control mice.
# healthy male subjects = assay: Phase I ascending single oral dose safety and tolerability in healthy male subjects; assay type: in vivo, human
# Protocol: The study was a Phase I, randomised, double-blind, placebo-controlled, ascending single oral dose, safety, tolerability, pharmacokinetic (PK) and pharmacodynamics (PD) study of IP2015 in healthy male subjects.
# Each subject received one oral dose of IP2015 or matched placebo. The starting dose of IP2015 was 0.01 mg in Cohort 1. The dose level was to be escalated to a maximum of 0.05 mg in Cohort 2 and a maximum of 0.2 mg in Cohort 3. The doses in the remaining five cohorts were to be determined based on the dose escalation criteria. In every cohort, no more than 2 subjects were dosed on the first dosing day (1 active; 1 placebo) such that no more than 1 subject received an active IP2015 dose for the first time at each dose level.
# The doses used in each cohort were as follows: • Cohort 1-0.01 mg • Cohort 2-0.05 mg • Cohort 3-0.2 mg • Cohort 4-0.6 mg • Cohort 5-1.8 mg • Cohort 6-5.4 mg • Cohort 7-16.2 mg • Cohort 8-10 mg
# The study evaluated the clinical safety data from adverse event (AE) reporting, 12-lead electrocardiogram (ECG), cardiac telemetry, vital signs (standing and supine blood pressure (BP), heart rate (HR), oral temperature and clinical laboratory evaluations (chemistry, haematology, urinalysis) and physical examinations in healthy male subjects.
# Safety parameters were listed and summarised using descriptive statistics. Pharmacokinetic parameter estimates were calculated using noncompartmental methods. Pharmacokinetic data were listed for each subject/patient and summarised by descriptive statistics.
# [1] = tested on: male subjects with erectile dysfunction (ED); assay: Treatment-emergent adverse events after repeat single oral doses in male subjects with ED; assay type: in vivo, human
# Protocol: Treatment-related adverse events are adverse events which could either be possibly or probably related to the treatment.
# 130 subjects were divided into 3 groups upon which the study was conducted in parallel. Each subject was dosed on four occasions with either 5 mg IP2015, 10 mg IP2015 or matched placebo. In each group, subjects were randomised evenly to each of the three study treatments and received the same treatment at each visit.
# There were three potential study treatments of 5 mg IP2015, 10 mg IP2015 or matched placebo. In each group, subjects were randomised evenly to each of the three study treatments and received the same treatment on each visit. IP2015 or matched placebo was administered once in the morning of Week 1 (Day 1), Week 2, Week 3, and Week 4 as an oral solution in the fasted state. The dose was taken with 240 ml of water at room temperature. Subjects had fasted 2 hours prior to dosing until 4 hours postdose. Water was allowed ad libitum except for 1 hour before and 1 hour after dosing.
# Efficacy was assessed through the International Index of Erectile Function (IIEF)-15 questionnaire. The change from baseline in responses to questions of the IIEF-15 questionnaire, including questions regarding erectile function, orgasmic function, sexual desire, intercourse satisfaction and overall satisfaction domain scores, was determined at different time points of the study. RigiScan assessments during the stimulus assessment, and sperm count and motility by semen sample collection was used for efficacy evaluation. Safety was assessed through AE reporting, 12-lead ECG, vital signs, physical examinations and clinical laboratory evaluations. Pharmacokinetics was assessed by blood sampling.
smiles,measurement,setting,value
"COc1cc2ccc(OC3CC4CCC(C3)N4)cc2oc1=O (stereo not drawn) [IP2015, 7-[(8-azabicyclo[3.2.1]octan-3-yl)oxy]-3-methoxy-chromen-2-one]","frequency, duration, and magnitude of erectile responses",diabetic db/db mice,"significantly increased the frequency, duration, and magnitude of erectile responses; also recorded: increased the number of erections"
same,incidence of TEAEs,healthy male subjects; 0.01 mg to 10 mg dose range,lower incidence of treatment-emergent adverse effects (TEAEs) compared to higher doses; also recorded: relatively low; also recorded: lower side effects than doses of 16.2 mg
same,mean ECG parameters,healthy male subjects; 0.01 mg to 10 mg dose range,no significant treatment- or dose-related trends
same,vital sign values,healthy male subjects; 0.01 mg to 10 mg dose range,no significant treatment- or dose-related trends
same,subjects with sustained tachycardia for several hours,healthy male subjects; 16.2 mg,2
same,incidence of side effects,healthy male subjects; 16.2 mg compared to 0.01 mg to 10 mg,increased at 16.2 mg compared to the 0.01 mg to 10 mg dose range
same,subjects reporting at least one TEAE,healthy male subjects; 16.2 mg dose group (all subjects),4
same,standing pulse rate,"healthy male subjects; 16.2 mg, 2, 3, 4, 6, 8, 10 and 12 hours postdose",increases from baseline
same,supine pulse rate,"healthy male subjects; 16.2 mg, 6, 8 and 10 hours postdose",increases from baseline
same,heart rate (ECG),"healthy male subjects; 16.2 mg, 8 and 12 hours postdose",increases from baseline
same,"haematology, serum biochemistry or urinalysis data","healthy male subjects; healthy males, single oral doses",no significant treatment- or dose-related trends
same,total TEAEs,"healthy male subjects; in the 40 subjects who received IP2015, 0.01-16.2 mg",32
same,subjects experiencing TEAEs,"healthy male subjects; of the 40 subjects who received IP2015, 0.01-16.2 mg",16
same,discontinuation due to a TEAE,healthy male subjects; whole Phase I study,no subjects discontinued due to a TEAE
same,severity of TEAEs,healthy male subjects; whole Phase I study,majority of events were mild in severity
same,"Any TEAE, number of events","[1]; 5 mg, N = 42",61
same,"Any TEAE, subjects (%)","[1]; 5 mg, N = 42",32 (76.2%)
same,"Dizziness, number of events","[1]; 5 mg, N = 42",3
same,"Dizziness, subjects (%)","[1]; 5 mg, N = 42",3 (7.1%)
same,"Headache, number of events","[1]; 5 mg, N = 42",15
same,"Headache, subjects (%)","[1]; 5 mg, N = 42",11 (26.2%)
same,"Mild TEAE, number of events","[1]; 5 mg, N = 42",56
same,"Mild TEAE, subjects (%)","[1]; 5 mg, N = 42",29 (69.0%)
same,"Moderate TEAE, number of events","[1]; 5 mg, N = 42",5
same,"Moderate TEAE, subjects (%)","[1]; 5 mg, N = 42",3 (7.1%)
same,"Nausea, number of events","[1]; 5 mg, N = 42",1
same,"Nausea, subjects (%)","[1]; 5 mg, N = 42",1 (2.4%)
same,"Related TEAE, number of events","[1]; 5 mg, N = 42",19
same,"Related TEAE, subjects (%)","[1]; 5 mg, N = 42",10 (23.8%)
same,Severe TEAE,"[1]; 5 mg, N = 42",0
same,"TEAEs, high dose compared to low dose",[1]; 10 mg versus 5 mg,slightly increased in the high dose compared to the low dose
same,"Any TEAE, number of events","[1]; 10 mg, N = 43",141
same,"Any TEAE, subjects (%)","[1]; 10 mg, N = 43",34 (79.1%)
same,"Dizziness, number of events","[1]; 10 mg, N = 43",15
same,"Dizziness, subjects (%)","[1]; 10 mg, N = 43",12 (27.9%)
same,"Headache, number of events","[1]; 10 mg, N = 43",27
same,"Headache, subjects (%)","[1]; 10 mg, N = 43",16 (37.2%)
same,"Mild TEAE, number of events","[1]; 10 mg, N = 43",132
same,"Mild TEAE, subjects (%)","[1]; 10 mg, N = 43",33 (76.7%)
same,"Moderate TEAE, number of events","[1]; 10 mg, N = 43",9
same,"Moderate TEAE, subjects (%)","[1]; 10 mg, N = 43",7 (16.3%)
same,"Nausea, number of events","[1]; 10 mg, N = 43",15
same,"Nausea, subjects (%)","[1]; 10 mg, N = 43",8 (18.6%)
same,"Related TEAE, number of events","[1]; 10 mg, N = 43",84
same,"Related TEAE, subjects (%)","[1]; 10 mg, N = 43",23 (53.5%)
same,Severe TEAE,"[1]; 10 mg, N = 43",0
same,severe side effects,"[1]; any of the doses (5 mg, 10 mg)",No severe side effects were observed; also recorded: No severe TEAEs were present
same,treatment-emergent adverse effects versus placebo group,[1]; low-dose (5 mg),comparable to the placebo group
